Results from patent publication US11814367B2, “Inhibitors of glycogen synthase 1 (GYS1) and methods of use thereof” (Maze Therapeutics, Inc., priority 2021, dated 2023).

Experiments:
[1] = target: hGYS1 enzyme (recombinant hGYS1/GN1 protein) (Homo sapiens (Human), UniProt P13807); experiment: GYS1 coupled enzyme assay (PK/LDH); format: biochemical; settings: hGYS1/GN1 50 nM, UDP-Glucose 0.8 mM, G6P 1 mM; geometric mean of at least 2 runs
[2] = test system: hGYS1 enzyme / glycogen synthesis in HeLa cells; experiment: GYS1 cell based assay (glycogen synthesis, Glucose-glo); parameters: species or system human; settings: Homo sapiens, HeLa, 24 h, 24 h incubation, 20 mM glucose, geometric mean of at least 2 runs
How it was run: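 HeLa cells starved 24 h in medium containing only 1× Glutamax were plated onto compound in medium with 20 mM glucose (1% DMSO final) for 24 h, 37 °C, 5% CO2. Acid lysates were Tris-quenched, glucoamylase-digested (pH 5.3, 1 h, 37 °C) and read by Glucose-glo luminescence. IC50 came from Hill fits, as geometric mean of ≥2 runs.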

[3] = target: hGYS2 enzyme (recombinant hGYS2/GN1 protein) (Homo sapiens (Human), UniProt P54840); experiment: GYS2 coupled enzyme assay (PK/LDH); format: biochemical; settings: geometric mean of at least 2 assay runs on separate days, read-out: Avg_IC50
How it was run: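 hGYS2/GN1 200 nM; UDP-Glc 2 mM; glycogen 0.2%; G6P 2 mM; PEP 2 mM, NADH 0.6 mM, PK/LDH 20 U/mL. 50 mM Tris pH 7.5, MgCl2, KCl, BSA, TCEP, 2.5% DMSO. Kinetic A340, 10 min. IC50 = geomean of ≥2 runs.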

Sequence of hGYS1 enzyme (recombinant hGYS1/GN1 protein) (P13807 whole entry): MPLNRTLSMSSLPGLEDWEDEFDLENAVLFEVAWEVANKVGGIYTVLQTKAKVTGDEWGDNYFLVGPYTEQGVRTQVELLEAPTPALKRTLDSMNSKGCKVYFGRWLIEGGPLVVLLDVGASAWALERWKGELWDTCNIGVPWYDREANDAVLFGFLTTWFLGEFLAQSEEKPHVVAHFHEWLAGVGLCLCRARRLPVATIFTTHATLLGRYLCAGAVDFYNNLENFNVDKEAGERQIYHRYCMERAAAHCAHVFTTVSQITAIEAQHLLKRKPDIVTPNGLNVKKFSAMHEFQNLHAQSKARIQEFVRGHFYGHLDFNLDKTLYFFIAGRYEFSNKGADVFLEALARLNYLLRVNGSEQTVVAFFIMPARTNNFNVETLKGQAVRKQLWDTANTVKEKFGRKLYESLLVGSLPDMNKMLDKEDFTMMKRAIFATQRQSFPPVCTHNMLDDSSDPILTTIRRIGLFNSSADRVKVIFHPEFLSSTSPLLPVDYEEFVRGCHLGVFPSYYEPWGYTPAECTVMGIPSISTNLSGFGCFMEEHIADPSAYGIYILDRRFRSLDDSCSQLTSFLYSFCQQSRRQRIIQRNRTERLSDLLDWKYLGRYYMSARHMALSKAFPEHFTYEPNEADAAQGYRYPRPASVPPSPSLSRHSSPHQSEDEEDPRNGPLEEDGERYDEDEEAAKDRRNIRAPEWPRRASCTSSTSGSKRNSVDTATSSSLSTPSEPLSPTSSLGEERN
Sequence of hGYS1 enzyme (recombinant hGYS1/GN1 protein) (P46976 whole entry partner): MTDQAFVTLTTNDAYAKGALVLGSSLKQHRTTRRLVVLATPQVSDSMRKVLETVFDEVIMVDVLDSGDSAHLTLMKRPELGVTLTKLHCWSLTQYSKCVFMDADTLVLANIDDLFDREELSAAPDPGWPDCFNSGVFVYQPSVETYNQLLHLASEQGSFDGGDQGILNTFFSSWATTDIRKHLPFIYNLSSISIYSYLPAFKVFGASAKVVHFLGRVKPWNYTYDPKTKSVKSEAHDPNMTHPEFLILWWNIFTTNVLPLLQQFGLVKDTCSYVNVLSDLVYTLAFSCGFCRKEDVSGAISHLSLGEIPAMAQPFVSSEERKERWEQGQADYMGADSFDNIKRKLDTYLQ
Sequence of hGYS2 enzyme (recombinant hGYS2/GN1 protein) (P54840 whole entry): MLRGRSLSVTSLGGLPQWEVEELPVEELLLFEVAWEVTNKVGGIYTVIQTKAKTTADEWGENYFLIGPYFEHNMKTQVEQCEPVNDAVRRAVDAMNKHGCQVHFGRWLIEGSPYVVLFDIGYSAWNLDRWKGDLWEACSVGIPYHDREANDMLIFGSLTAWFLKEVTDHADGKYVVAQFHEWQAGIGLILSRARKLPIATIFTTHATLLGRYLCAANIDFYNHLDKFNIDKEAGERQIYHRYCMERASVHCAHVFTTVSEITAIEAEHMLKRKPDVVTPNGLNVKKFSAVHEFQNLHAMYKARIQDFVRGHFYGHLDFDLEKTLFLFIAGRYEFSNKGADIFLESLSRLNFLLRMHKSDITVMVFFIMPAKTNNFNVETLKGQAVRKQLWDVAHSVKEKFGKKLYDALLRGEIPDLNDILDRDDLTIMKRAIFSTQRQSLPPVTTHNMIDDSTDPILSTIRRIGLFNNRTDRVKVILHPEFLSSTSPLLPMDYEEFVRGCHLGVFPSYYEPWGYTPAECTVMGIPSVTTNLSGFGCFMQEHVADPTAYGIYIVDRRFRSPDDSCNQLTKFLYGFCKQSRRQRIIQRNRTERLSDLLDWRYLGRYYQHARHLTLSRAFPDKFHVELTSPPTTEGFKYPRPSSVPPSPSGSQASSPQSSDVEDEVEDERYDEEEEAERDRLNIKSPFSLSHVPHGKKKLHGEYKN
Sequence of hGYS2 enzyme (recombinant hGYS2/GN1 protein) (P46976 whole entry partner): as the sequence (P46976 whole entry partner) above

Row | Structure (SMILES) | IC50 [1] | IC50 [2] | IC50 [3]
1 | CC(C)c1ccc([C@@H](NC(=O)[C@@H]2C[C@@H](F)CN2C(=O)Cc2cnc3ccccn23)c2ccccc2)cc1F [Compound 356, (2S,4R)-4-fluoro-N-[(S)-[3-fluoro-4-(propan-2-yl)phenyl](phenyl)methyl]-1-(2-{imidazo[1,2-a]pyridin-3-yl}acetyl)pyrrolidine-2-carboxamide] | 13 nM | 190 nM | > 100000 nM
2 | CC(C)c1ccc([C@@H](NC(=O)[C@@H]2C[C@@H](F)CN2C(=O)Cc2ccc3ncccc3c2)c2ccccc2)cc1F [Compound 357, (2S,4R)-4-fluoro-N-[(S)-[3-fluoro-4-(propan-2-yl)phenyl](phenyl)methyl]-1-[2-(quinolin-6-yl)acetyl]pyrrolidine-2-carboxamide] | 21 nM | 220 nM | > 100000 nM
3 | CC(C)c1ccc([C@@H](NC(=O)[C@@H]2C[C@@H](F)CN2C(=O)Cc2ccc3ncnn3c2)c2ccccc2)cc1F [Compound 358, (2S,4R)-4-fluoro-N-[(S)-[3-fluoro-4-(propan-2-yl)phenyl](phenyl)methyl]-1-(2-{[1,2,4]triazolo[1,5-a]pyridin-6-yl}acetyl)pyrrolidine-2-carboxamide] | 11 nM | 190 nM | > 100000 nM
4 | CC(C)c1ccc([C@@H](NC(=O)[C@@H]2C[C@@H](F)CN2C(=O)Cn2nnnc2C(F)(F)F)c2ccccc2)cc1F [Compound 359] | 63 nM | 960 nM | > 100000 nM
5 | CC(C)c1ccc([C@@H](NC(=O)[C@@H]2C[C@@H](F)CN2C(=O)COC(=O)N(C)C)c2ccccc2)cc1F [Compound 360, 2-[(2S,4R)-4-fluoro-2-{[(S)-[3-fluoro-4-(propan-2-yl)phenyl](phenyl)methyl]carbamoyl}pyrrolidin-1-yl]-2-oxoethyl N,N-dimethylcarbamate] | 19 nM | 310 nM | > 100000 nM
6 | CC(C)c1ccc([C@@H](NC(=O)[C@@H]2C[C@@H](F)CN2C(=O)CN(C)C(=O)N(C)C)c2ccccc2)cc1F [Compound 362, (2S,4R)-1-{2-[(dimethylcarbamoyl) (methyl)amino]acetyl}-4-fluoro-N-[(S)-[3-fluoro-4-(propan-2-yl)phenyl](phenyl)methyl] pyrrolidine-2-carboxamide] | 90 nM | 1150 nM | > 100000 nM
7 | CC(C)c1ccc([C@@H](NC(=O)[C@@H]2C[C@@H](F)CN2C(=O)COC(=O)N2CCNCC2)c2ccccc2)cc1F [Compound 363, 2-[(2S,4R)-4-fluoro-2-{[(S)-[3-fluoro-4-(propan-2-yl)phenyl](phenyl)methyl]carbamoyl}pyrrolidin-1-yl]-2-oxoethyl piperazine-1-carboxylate] | 19 nM | 320 nM | > 100000 nM
8 | CC(C)c1ccc([C@@H](NC(=O)[C@@H]2C[C@@H](F)CN2C(=O)COC(=O)N2CCN(C(=O)OC(C)(C)C)CC2)c2ccccc2)cc1F [Compound 364, 1-tert-butyl 4-{2-[(2S,4R)-4-fluoro-2-{[(S)-[3-fluoro-4-(propan-2-yl)phenyl](phenyl)methyl]carbamoyl}pyrrolidin-1-yl]-2-oxoethyl} piperazine-1,4-dicarboxylate] | 80 nM | 480 nM | > 100000 nM
9 | CC(C)c1ccc([C@@H](NC(=O)[C@@H]2C[C@@H](F)CN2C(=O)CNC(=O)N2CCNCC2)c2ccccc2)cc1F [Compound 365, N-{2-[(2S,4R)-4-fluoro-2-{[(S)-[3-fluoro-4-(propan-2-yl)phenyl](phenyl)methyl]carbamoyl}pyrrolidin-1-yl]-2-oxoethyl}piperazine-1-carboxamide] | 7 nM | 1190 nM | > 100000 nM
10 | Cc1nn[nH]c1CC(=O)N1C[C@H](F)C[C@H]1C(=O)N[C@@H](c1ccccc1)c1ccc(C(C)C)c(F)c1 [Compound 367, (2S,4R)-4-fluoro-N-[(S)-[3-fluoro-4-(propan-2-yl)phenyl](phenyl)methyl]-1-[2-(4-methyl-1H-1,2,3-triazol-5-yl)acetyl]pyrrolidine-2-carboxamide] | 16 nM | 470 nM | > 100000 nM
11 | CC(C)c1ccc([C@@H](NC(=O)[C@@H]2C[C@@H](F)CN2C(=O)Cc2[nH]nnc2C(F)(F)F)c2ccccc2)cc1F [Compound 368, (2S,4R)-4-fluoro-N-[(S)-[3-fluoro-4-(propan-2-yl)phenyl](phenyl)methyl]-1-{2-[4-(trifluoromethyl)-1H-1,2,3-triazol-5-yl]acetyl}pyrrolidine-2-carboxamide] | 5 nM | 150 nM | > 82300 nM
12 | CC(C)c1ccc([C@@H](NC(=O)[C@@H]2C[C@@H](F)CN2C(=O)Cc2[nH]nnc2N2CCNCC2)c2ccccc2)cc1F [Compound 369, (2S,4R)-4-fluoro-N-[(S)-[3-fluoro-4-(propan-2-yl)phenyl](phenyl)methyl]-1-{2-[4-(piperazin-1-yl)-1H-1,2,3-triazol-5-yl]acetyl}pyrrolidine-2-carboxamide] | 537 nM | > 30000 nM | > 100000 nM
13 | CC(C)c1ccc([C@@H](NC(=O)[C@@H]2C[C@@H](F)CN2C(=O)Cc2[nH]nnc2N2CCOCC2)c2ccccc2)cc1F [Compound 371, (2S,4R)-4-fluoro-N-[(S)-[3-fluoro-4-(propan-2-yl)phenyl](phenyl)methyl]-1-{2-[4-(morpholin-4-yl)-1H-1,2,3-triazol-5-yl]acetyl}pyrrolidine-2-carboxamide] | 343 nM | 3880 nM | > 100000 nM
14 | CC(C)c1ccc([C@@H](NC(=O)[C@@H]2C[C@@H](F)CN2C(=O)Cn2cc(C(F)(F)F)nn2)c2ccccc2)cc1F [Compound 372, (2S,4R)-4-fluoro-N-[(S)-[3-fluoro-4-(propan-2-yl)phenyl](phenyl)methyl]-1-{2-[4-(trifluoromethyl)-1H-1,2,3-triazol-1-yl]acetyl}pyrrolidine-2-carboxamide] | 36 nM | 1100 nM | > 100000 nM
15 | Cc1cn(CC(=O)N2C[C@H](F)C[C@H]2C(=O)N[C@@H](c2ccccc2)c2ccc(C(C)C)c(F)c2)nn1 [Compound 373, (2S,4R)-4-fluoro-N-[(S)-[3-fluoro-4-(propan-2-yl)phenyl](phenyl)methyl]-1-[2-(4-methyl-1H-1,2,3-triazol-1-yl)acetyl]pyrrolidine-2-carboxamide] | 14 nM | 210 nM | > 100000 nM
16 | Cc1cnnn1CC(=O)N1C[C@H](F)C[C@H]1C(=O)N[C@@H](c1ccccc1)c1ccc(C(C)C)c(F)c1 [Compound 374, (2S,4R)-4-fluoro-N-[(S)-[3-fluoro-4-(propan-2-yl)phenyl](phenyl)methyl]-1-[2-(5-methyl-1H-1,2,3-triazol-1-yl)acetyl]pyrrolidine-2-carboxamide] | 22 nM | 360 nM | > 100000 nM
17 | CC(C)c1ccc([C@@H](NC(=O)[C@@H]2C[C@@H](F)CN2C(=O)Cn2cc(N3CCNCC3)nn2)c2ccccc2)cc1F [Compound 375, (2S,4R)-4-fluoro-N-[(S)-[3-fluoro-4-(propan-2-yl)phenyl](phenyl)methyl]-1-{2-[4-(piperazin-1-yl)-1H-1,2,3-triazol-1-yl]acetyl}pyrrolidine-2-carboxamide] | 6 nM | 570 nM | > 77400 nM
18 | CC(C)c1ccc([C@@H](NC(=O)[C@@H]2C[C@@H](F)CN2C(=O)Cn2cc(N(C)C)nn2)c2ccccc2)cc1F [Compound 377, (2S,4R)-1-{2-[4-(dimethylamino)-1H-1,2,3-triazol-1-yl]acetyl}-4-fluoro-N-[(S)-[3-fluoro-4-(propan-2-yl)phenyl](phenyl)methyl] pyrrolidine-2-carboxamide] | 12 nM | 140 nM | > 100000 nM
19 | CC(C)c1ccc([C@@H](NC(=O)[C@@H]2C[C@@H](F)CN2C(=O)Cn2ncc(N(C)C)n2)c2ccccc2)cc1F [Compound 378, (2S,4R)-1-{2-[4-(dimethylamino)-2H-1,2,3-triazol-2-yl]acetyl}-4-fluoro-N-[(S)-[3-fluoro-4-(propan-2-yl)phenyl](phenyl)methyl] pyrrolidine-2-carboxamide] | 6 nM | 170 nM | > 100000 nM
20 | CC(C)c1ccc([C@@H](NC(=O)[C@@H]2C[C@@H](F)CN2C(=O)Cc2cccn3c(=O)[nH]nc23)c2ccccc2)cc1F [Compound 379, (2S,4R)-4-fluoro-N-[(S)-[3-fluoro-4-(propan-2-yl)phenyl](phenyl)methyl]-1-(2-{3-oxo-2H,3H-[1,2,4]triazolo[4,3-a]pyridin-8-yl}acetyl)pyrrolidine-2-carboxamide] | 8 nM | 190 nM | > 100000 nM
21 | CC(C)c1ccc([C@@H](NC(=O)[C@@H]2C[C@@H](F)CN2C(=O)Cn2ccnc2)c2ccccc2)cc1F [Compound 380, (2S,4R)-4-fluoro-N-[(S)-[3-fluoro-4-(propan-2-yl)phenyl](phenyl)methyl]-1-[2-(1H-imidazol-1-yl)acetyl]pyrrolidine-2-carboxamide] | 47 nM | 450 nM | > 100000 nM
22 | CC(C)c1ccc([C@@H](NC(=O)[C@@H]2C[C@@H](F)CN2C(=O)[C@@H]2CNC(=O)O2)c2ccccc2)cc1F [Compound 381, (2S,4R)-4-fluoro-N-[(S)-[3-fluoro-4-(propan-2-yl)phenyl](phenyl)methyl]-1-[(5S)-2-oxo-1,3-oxazolidine-5-carbonyl]pyrrolidine-2-carboxamide] | 58 nM | 440 nM | > 100000 nM
